Results published in publication PMC6018746, “Activation of the p53-MDM4 regulatory axis defines the anti-tumour response to PRMT5 inhibition through its role in regulating cellular splicing” (Scientific Reports, 2018).
Like-named read-outs stand apart in the source and are kept apart here.

Tested on: panel of 240 cancer cell lines
Experiment: 10-day growth/death assay (Eurofins panel)
Type: cell-based
Details: Homo sapiens, read-out: gIC50
From the text: To further develop these molecules and to guide clinical strategy, it was necessary to understand sensitivity in preclinical models by assessing the anti-tumour activity of the PRMT5 inhibitors in various cancers. […] Lymphoma, including MCL and diffuse large B-cell lymphoma (DLBCL), breast, and multiple myeloma cell lines were among the most sensitive tumour types and had gIC50 values in the low nM range (Fig. 1B). […] Since lymphoma and breast cancer cell lines were among the most sensitive in the proliferation screens, subsequent mechanistic studies were performed in these tumour types.

O=C(NC[C@H](O)CN1CCc2ccccc2C1)c1ccnc(NC2CCC2)c1 [GSK3203591]
IC50 (22Rv1, 22Rv1): 2480 nM
IC50 (639-V): 342 nM
IC50 (647-V): 62 nM
IC50 (769-P): 203 nM
IC50 (786-0, 786-O): 20.3 nM
IC50 (5637.000): 285 nM
IC50 (A7): 36.7 nM
IC50 (A101D): 190 nM
IC50 (A 172, A172): 29.6 nM
IC50 (A204, A204): 223 nM
IC50 (A498, A498): 50.7 nM
IC50 (A549, A549): 80.9 nM
IC50 (A673, A-673): 119 nM
IC50 (A-375, A375): 79.6 nM
IC50 (A-431, A431): 549 nM
IC50 (ACHN): 38.6 nM
IC50 (AGS): 2030 nM
IC50 (AN3-CA, AN3 CA): 254 nM
IC50 (ARH-77, ARH-77): 44.4 nM
IC50 (ASPC1, AsPC-1): 302 nM
IC50 (AU565, AU565): 14.6 nM
IC50 (BC1, BC-1): 69.6 nM
IC50 (BE(2)-C, BE(2)C): 803 nM
IC50 (BFTC-905, BFTC-905): 259 nM
IC50 (BPH-1, BPH1): 718 nM
IC50 (BT-20, BT20): 2280 nM
IC50 (BT-474, BT474): 172 nM
IC50 (BT-549, BT-549): 59.4 nM
IC50 (BV-173, BV-173): 10.6 nM
IC50 (BXPC-3, BxPC-3): 160 nM
IC50 (BeWo): 1090 nM
IC50 (C32, C32): 14.1 nM
IC50 (C-4-II, C-4 II): 266 nM
IC50 (C-4I): 139 nM
IC50 (C-33-A, C-33A): 228 nM
IC50 (CAKI-1, Caki-1): 68.8 nM
IC50 (CAKI-2, Caki-2): 114 nM
IC50 (CAL-27, Cal 27): 103 nM
IC50 (CAL-62, CAL-62): 253 nM
IC50 (CAMA-1, CAMA-1): 78.9 nM
IC50 (CAPAN-1, Capan-1): 370 nM
IC50 (CCF-STTG1, CCF-STTG1): 115 nM
IC50 (CCRF-CEM, CCRFCEM): 3140 nM
IC50 (CEM/C1, CEM-C1): 7.92 nM
IC50 (CFPAC-1, CFPAC-1): 52.3 nM
IC50 (CGTH-W-1, CGTH-W-1): 82.2 nM
IC50 (CHL-1, CHL-1): 247 nM
IC50 (CHP-212, CHP-212): 24 nM
IC50 (CML-T1, CML-T1): 16.1 nM
IC50 (COLO 201, Colo 201): 49.6 nM
IC50 (COLO 205, Colo 205): > 10000 nM
IC50 (COLO 320DM): 82.5 nM
IC50 (COLO-320-HSR, Colo 320 HSR): 80.3 nM
IC50 (COLO-829, COLO 829): 54.4 nM
IC50 (COR-L23, COR-L23): 147 nM
IC50 (COR-L105, COR-L105): 314 nM
IC50 (CRO-AP2, CRO-AP2): 250 nM
IC50 (Calu-1, Calu1): 3050 nM
IC50 (Caov-3, CaOV3): 298 nM
IC50 (Capan-2, Capan-2): 69.7 nM
IC50 (ChaGo-K-1, ChaGoK1): 1190 nM
IC50 (D283 Med): 23.5 nM
IC50 (DB): 2.51 nM
IC50 (DBTRG-05MG): 156 nM
IC50 (DK-MG): 89.5 nM
IC50 (DLD-1, DLD-1): 134 nM
IC50 (DMS-114, DMS114): 1010 nM
IC50 (DOHH-2, DOHH-2): 157 nM
IC50 (Daoy): 270 nM
IC50 (Daudi): 142 nM
IC50 (Detroit 562, Detroit 562): 104 nM
IC50 (DoTc2-4510, DoTc2 4510): 95.8 nM
IC50 (EB-3, EB-3): 299 nM
IC50 (EFM-19, EFM-19): 69.5 nM
IC50 (EM-2, EM-2): 94 nM
IC50 (ES-2, ES-2): 106 nM
IC50 (FaDu): 15.4 nM
IC50 (G-401, G-401): 38.4 nM
IC50 (G-402, G-402): 99.7 nM
IC50 (H4): 151 nM
IC50 (HCT-8, HCT-8): 430 nM
IC50 (HCT-15, HCT-15): 68.4 nM
IC50 (HCT-116, HCT-116): 166 nM
IC50 (HEC-1-A): 2440 nM
IC50 (HEL 92.1.7, HEL-92-1-7): 9.02 nM
IC50 (HLE): 174 nM
IC50 (HLF): 87.7 nM
IC50 (HMCB): 666 nM
IC50 (HOS): 223 nM
IC50 (HPAF-II): 154 nM
IC50 (HT1197, HT-1197): 98.9 nM
IC50 (HT-3, HT-3): > 10000 nM
IC50 (HT-29, HT-29): 95.2 nM
IC50 (HT-1080, HT-1080): 53.5 nM
IC50 (HT-1376, HT1376): 297 nM
IC50 (HT): 206 nM
IC50 (HUH-6-clone5, HUH-6 Clone 5): 361 nM
IC50 (HeLa): 230 nM
IC50 (HepG2, HepG2): 214 nM
IC50 (Hs 294T): 12.3 nM
IC50 (Hs 695T): 602 nM
IC50 (Hs746T, HS 746T): 171 nM
IC50 (Hs766T): 1120 nM
IC50 (Hs-578T, Hs 578T): 947 nM
IC50 (HuCCT-1, HuCCT1): 225 nM
IC50 (HuP-T4, HuP-T4): 84.9 nM
IC50 (J82, J82): 83.1 nM
IC50 (J-RT3-T3-5, J-RT3-T3-5): 43.2 nM
IC50 (JAR): 485 nM
IC50 (JEG-3, JEG-3): 216 nM
IC50 (Jurkat): 130 nM
IC50 (K562, K562): 146 nM
IC50 (KATO III): 16.7 nM
IC50 (KHOS-240S): 124 nM
IC50 (KLE): > 10000 nM
IC50 (KPL-1, KPL-1): 1330 nM
IC50 (L-428, L-428): 330 nM
IC50 (LNCaP): 2930 nM
IC50 (LS174T, LS-174T): 170 nM
IC50 (MC-IXC): 615 nM
IC50 (MCF7, MCF7): 10.9 nM
IC50 (MDA-MB-231, MDA MB 231): 56.7 nM
IC50 (MDA-MB-436, MDA-MB-436): 49.7 nM
IC50 (MDA-MB-453, MDA MB 453): 64.5 nM
IC50 (MDA-MB-468, MDA MB 468): 4.83 nM
IC50 (MEG-01, MEG01): > 10000 nM
IC50 (MES-SA): 72 nM
IC50 (MG-63, MG-63): 96 nM
IC50 (MHH-PREB-1, MHH-PREB-1): > 10000 nM
IC50 (MIA PaCa-2, Mia PaCa-2): 158 nM
IC50 (MOLT-3, MOLT-3): 217 nM
IC50 (MOLT-16, MOLT-16): 54.2 nM
IC50 (MT-3, MT-3): 46.4 nM
IC50 (MV4-11, MV-4-11): 65.8 nM
IC50 (MX1, MX1): 294 nM
IC50 (Malme-3M, MALME3M): 265 nM
IC50 (MeWo): 249 nM
IC50 (NALM-6, NALM-6): 110 nM
IC50 (NCI-H69, NCI-H69): 144 nM
IC50 (NCI-H295R): > 10000 nM
IC50 (NCI-H441, NCIH441): 556 nM
IC50 (NCI-H446, NCIH446): 570 nM
IC50 (NCI-H460, NCI-H460): 224 nM
IC50 (NCI-H508, NCI-H508): 307 nM
IC50 (NCI-H520, NCI-H520): 15.6 nM
IC50 (NCI-H596, NCI-H596): 188 nM
IC50 (NCI-H661, NCI-H661): 152 nM
IC50 (NCI-H747, NCI-H747): 2580 nM
IC50 (OCUG-1, OCUG-1): 379 nM
IC50 (OE19, OE19): 98 nM
IC50 (OE33, OE33): 231 nM
IC50 (OVCAR-3, OVCAR3): 51.4 nM
IC50 (PANC-1, PANC-1): 165 nM
IC50 (PC-3, PC-3): 873 nM
IC50 (RD): 639 nM
IC50 (RKO): 772 nM
IC50 (RKOAS451, RKO-AS45-1): 113 nM
IC50 (RKOE6, RKOE6): 210 nM
IC50 (RL95-2, RL95-2): 218 nM
IC50 (RPMI-6666, RPMI 6666): 748 nM
IC50 (RPMI-7951, RPMI-7951): 44.2 nM
IC50 (RPMI-8226, RPMI 8226): 58.4 nM
IC50 (Raji): 24.5 nM
IC50 (Ramos, Ramos (RA 1)): 546 nM
IC50 (SAOS-2, SaOS2): 48.2 nM
IC50 (SCC-4, SCC-4): 286 nM
IC50 (SCC-9, SCC-9): 747 nM
IC50 (SCC-25, SCC-25): 273 nM
IC50 (SCaBER): 123 nM
IC50 (SH-4, SH-4): 75.2 nM
IC50 (SJRH30, SJRH30): 472 nM
IC50 (SK-BR-3, SK-BR-3): 76.4 nM
IC50 (SK-LMS-1, SK-LMS-1): 113 nM
IC50 (SK-MEL3, SK-MEL-3): 181 nM
IC50 (SK-MEL-1, SK-MEL-1): 38.7 nM
IC50 (SK-MEL-28, SK-MEL-28): 239 nM
IC50 (SK-MES-1, SKMES1): 807 nM
IC50 (SK-N-AS): 31.9 nM
IC50 (SK-N-DZ): 257 nM
IC50 (SK-N-FI): 308 nM
IC50 (SK-NEP-1, SK-NEP-1): 264 nM
IC50 (SK-OV-3, SKOV3): 52.6 nM
IC50 (SK-UT-1, SK-UT-1): 42.1 nM
IC50 (SKO-007, SKO-007): 84.4 nM
IC50 (SNB-19, SNB-19): 223 nM
IC50 (SNU1, SNU-1): 1040 nM
IC50 (SNU-16, SNU-16): 34.4 nM
IC50 (SNU-423, SNU-423): 66 nM
IC50 (SR): 275 nM
IC50 (ST486, ST486): 101 nM
IC50 (SU.86.86, SU.86.86): 934 nM
IC50 (SW13, SW-13): 211 nM
IC50 (SW48, SW48): > 10000 nM
IC50 (SW480, SW480): 413 nM
IC50 (SW579, SW579): 83.3 nM
IC50 (SW684, SW684): 1170 nM
IC50 (SW837, SW837): 102 nM
IC50 (SW872, SW872): 54 nM
IC50 (SW900, SW900): 3250 nM
IC50 (SW948, SW948): 120 nM
IC50 (SW 954, SW954): > 10000 nM
IC50 (SW1088, SW1088): 40.5 nM
IC50 (SW1353, SW1353): 129 nM
IC50 (SW1417, SW1417): 773 nM
IC50 (SW1463, SW1463): 770 nM
IC50 (SW1783, SW1783): 389 nM
IC50 (SW-403, SW403): 153 nM
IC50 (SW-620, SW620): 5640 nM
IC50 (SiHa): 2510 nM
IC50 (T47D): 52.4 nM
IC50 (T98G): 27.3 nM
IC50 (T-24, T24): 449 nM
IC50 (TCC-SUP, TCCSUP): 235 nM
IC50 (THP-1, Thp1): 80.5 nM
IC50 (U138-MG, U-138MG): 43.3 nM
IC50 (U266B1): 78.5 nM
IC50 (U-87 MG): 67.6 nM
IC50 (UMUC3, UM-UC-3): 105 nM
IC50 (WI-38, Wi38): 18.5 nM
IC50 (WiDr): 505 nM
IC50 (Y79, Y79): 113 nM
IC50 (YAPC): 168 nM
